Results taken from patent publication US20190388421A1, “NOVEL COMPOUNDS AND PHARMACEUTICAL COMPOSITIONS THEREOF FOR THE TREATMENT OF FIBROSIS” (Galapagos NV, priority 2016, published 2019).

Tests used:
[1] = biological target: T1, human GPCR sphingosine 1-phosphate receptor 1 (S1PR1) (Homo sapiens, UniProt P21453); test: S1PR1 selectivity assay (Ca2+ flux, antagonist); type: cell-based; conditions: S1P1 antagonist EC50, CHO cells overexpressing human S1PR1 and Gq protein
T1 construct: host or cells: CHO
Outline: (§1)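 CHO cells stably overexpressing human S1PR1 or S1PR5 with Gq were preincubated with compound 15 min at 37 °C, then stimulated with S1P at EC80 (S1PR1) or an S1PR5-specific agonist (S1PR5). Ca2+ fluorescence was read for 3 min; 10-point 1/3 dilutions from 20 μM final, normalized to vehicle and EC80 trigger, gave EC50.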

S1PR2 = biological target: T2, S1PR2 (Homo sapiens, UniProt O95136); test: GTP-γS binding assay ([35S]GTPγS, S1P at EC80, S1PR2 membranes); type: biochemical; conditions: membranes from stable cell line over expressing S1PR2, read-out: S1PR2 EC
T2 construct: expressed in transfected cells
Outline: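 Compounds tested against S1P at its EC80 on membranes (2.5 μg/well) from a stable S1PR2-overexpressing line, pre-incubated with 1 μM GDP 15 min at 4 °C. Buffer: 20 mM Tris pH 7.5, 10 mM MgCl2, 100 mM NaCl, 0.1% fatty-acid-free BSA, 50 ug/ml saponin. Incubated 4 h at room temperature; [35S]GTPγS binding read by WGA SPA beads.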

HFL-1 cells [2] = test: IL8 assay in the presence of Human Serum Albumin; type: cell-based; conditions: HFL1, S1P (5 μM) induced IL-8, HFL-1 cells, with 2% HSA, read-out: HSA IL8 EC50
Outline: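 Cells serum-starved with 1.95% HSA, pre-treated 1 h with compound (10-point 1/3 dilution from 30 μM, 0.3% DMSO), then stimulated with 5 μM S1P for 16 to 24 h at 37° C. Supernatant IL-8 measured by ELISA.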

[3] = biological target: T3, human GPCR sphingosine 1-phosphate receptor 2 (S1PR2) (Homo sapiens, UniProt O95136); test: S1P2 antagonist assay (Ca2+ flux, S1P at EC80); type: cell-based; conditions: CHO-S1PR2 cells, highest concentration 20 μM
T3 construct: host or cells: CHO
Outline: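 CHO cells stably overexpressing human S1PR2, serum-starved 1 h and loaded with Fluo8 dye, were read for 3 min after compound addition, then stimulated with S1P at EC80 after 15 min at 37 °C. Top concentration 20 μM in a 10-point 1/3 series; Ca2+ fluorescence ratio normalized to vehicle and S1P EC80, giving EC50.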

[4] = biological target: T4, human GPCR sphingosine 1-phosphate receptor 5 (S1PR5) (Homo sapiens, UniProt Q9H228); test: S1PR5 selectivity assay (Ca2+ flux, antagonist, S1PR5 specific agonist trigger); type: cell-based; conditions: S1P5 antagonist EC50, CHO cells overexpressing human S1PR5 and Gq protein
T4 construct: host or cells: CHO
Outline: as §1

HFL-1 cells [5] = test: IL8 assay (S1P induced IL-8 production); type: cell-based; conditions: Homo sapiens, HFL1; S1P (1 μM) induced IL-8, HFL-1 cells, without HSA
Outline: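 Serum-starved human fetal lung fibroblasts were preincubated with compound for 1 h at 37° C (10-point, 1/3 dilution, top 30 μM, 0.3% DMSO). S1P at 1 μM final was then added for 16–24 h, and IL-8 in the supernatant was measured by ELISA.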

T1 sequence (P21453 whole entry): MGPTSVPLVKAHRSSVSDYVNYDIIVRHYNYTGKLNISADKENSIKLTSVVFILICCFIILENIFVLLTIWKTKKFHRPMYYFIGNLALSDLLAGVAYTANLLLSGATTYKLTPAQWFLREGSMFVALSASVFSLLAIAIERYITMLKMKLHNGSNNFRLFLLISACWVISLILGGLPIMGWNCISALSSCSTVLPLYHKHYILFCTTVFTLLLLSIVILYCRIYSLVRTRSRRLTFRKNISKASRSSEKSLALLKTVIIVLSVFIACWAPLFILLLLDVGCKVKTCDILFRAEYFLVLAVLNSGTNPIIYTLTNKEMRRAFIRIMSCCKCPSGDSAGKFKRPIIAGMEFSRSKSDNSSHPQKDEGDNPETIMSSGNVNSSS
T4 sequence (Q9H228 whole entry): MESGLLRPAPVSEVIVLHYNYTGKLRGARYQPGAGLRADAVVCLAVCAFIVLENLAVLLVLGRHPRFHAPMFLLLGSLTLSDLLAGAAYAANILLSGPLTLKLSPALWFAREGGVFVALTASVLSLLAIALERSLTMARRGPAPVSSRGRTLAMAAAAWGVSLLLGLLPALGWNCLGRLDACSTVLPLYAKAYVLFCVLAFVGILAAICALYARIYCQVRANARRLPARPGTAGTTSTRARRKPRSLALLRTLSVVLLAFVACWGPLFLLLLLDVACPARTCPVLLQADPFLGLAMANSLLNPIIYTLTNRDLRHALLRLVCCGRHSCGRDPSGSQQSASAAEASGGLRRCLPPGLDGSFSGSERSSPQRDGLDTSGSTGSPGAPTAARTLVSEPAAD
T2 sequence (O95136 whole entry): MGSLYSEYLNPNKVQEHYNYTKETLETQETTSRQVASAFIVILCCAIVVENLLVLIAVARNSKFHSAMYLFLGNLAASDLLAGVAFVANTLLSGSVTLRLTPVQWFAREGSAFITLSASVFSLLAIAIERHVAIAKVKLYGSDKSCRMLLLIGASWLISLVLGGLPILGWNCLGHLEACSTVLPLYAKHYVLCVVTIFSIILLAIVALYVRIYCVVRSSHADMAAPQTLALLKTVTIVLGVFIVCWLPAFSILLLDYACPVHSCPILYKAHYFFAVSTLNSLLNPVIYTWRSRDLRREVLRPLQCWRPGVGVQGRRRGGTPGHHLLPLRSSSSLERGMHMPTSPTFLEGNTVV
T3 sequence (O95136 whole entry): as above

EC50 [1]	EC50 (S1PR2)	IC50 (HFL-1 cells [2])	EC50 [3]	EC50 [4]	EC50 (HFL-1 cells [5])	Compound
≥ 19800 nM	469 nM	10000 nM	188 nM	≥ 19800 nM	432 nM	Cc1cc(CNC(=O)Nc2cc(Cl)nc(OCC(F)F)c2)nnc1N1CC(S(C)(=O)=O)C1 [Compound 92, 1-[2-chloro-6-(2,2-difluoroethoxy)-4-pyridyl]-3-[[5-methyl-6-(3-methylsulfonyl-azetidin-1-yl)pyridazin-3-yl]methyl]urea]
6610 nM	302 nM	2270 nM	33 nM	627 nM	44 nM	CCOc1cc(NC(=O)NCc2cc(C)c(N3CCCc4nn(C)cc43)nn2)cc(C(F)(F)F)n1 [Compound 96, 1-[2-ethoxy-6-(trifluoromethyl)-4-pyridyl]-3-[[5-methyl-6-(2-methyl-6,7-dihydro-5H-pyrazolo[4,3-b]pyridin-4-yl)pyridazin-3-yl]methyl]urea]
